#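 GI50 is the concentration that inhibits growth by half. The concentration for full growth arrest is given as TGI.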
# Tests used:
# Test in all cases: NCI anticancer screen, dose series, 384-well format
# 786-0 renal = system: 786-0 renal
# A498 renal = system: A498 renal
# A549 NSCLC = system: A549 NSCLC
# ACHN renal = system: ACHN renal
# BT-549 breast = system: BT-549 breast
# CAKI-1 renal = system: CAKI-1 renal
# CCRF-CEM leukemia = system: CCRF-CEM leukemia
# COLO 205 colon = system: COLO 205 colon
# DU-145 prostate = system: DU-145 prostate
# HCC-2998 colon = system: HCC-2998 colon
# HCT-116 colon = system: HCT-116 colon
# HCT-15 colon = system: HCT-15 colon
# HL-60(TB) leukemia = system: HL-60(TB) leukemia
# HOP-62 NSCLC = system: HOP-62 NSCLC
# HOP-92 NSCLC = system: HOP-92 NSCLC
# HT29 colon = system: HT29 colon
# IGROV1 ovarian = system: IGROV1 ovarian
# K-562 leukemia = system: K-562 leukemia
# KM12 colon = system: KM12 colon
# LOX IMVI melanoma = system: LOX IMVI melanoma
# M14 melanoma = system: M14 melanoma
# MALME-3M melanoma = system: MALME-3M melanoma
# MCF7 breast = system: MCF7 breast
# MDA-MB-231 breast = system: MDA-MB-231 breast
# MDA-MB-435 melanoma = system: MDA-MB-435 melanoma
# MDA-MB-468 breast = system: MDA-MB-468 breast
# MOLT-4 leukemia = system: MOLT-4 leukemia
# NCI-H226 lung = system: NCI-H226 lung
# NCI-H23 lung = system: NCI-H23 lung
# NCI-H322M lung = system: NCI-H322M lung
# NCI-H460 NSCLC = system: NCI-H460 NSCLC
# NCI-H522 lung = system: NCI-H522 lung
# NCI/ADR-RES ovarian = system: NCI/ADR-RES ovarian
# OVCAR-3 ovarian = system: OVCAR-3 ovarian
# OVCAR-4 ovarian = system: OVCAR-4 ovarian
# OVCAR-5 ovarian = system: OVCAR-5 ovarian
# OVCAR-8 ovarian = system: OVCAR-8 ovarian
# PC-3 prostate = system: PC-3 prostate
# RPMI-8226 leukemia = system: RPMI-8226 leukemia
# RXF 393 renal = system: RXF 393 renal
# SF-268 CNS = system: SF-268 CNS
# SF-295 CNS = system: SF-295 CNS
# SF-539 CNS = system: SF-539 CNS
# SK-MEL-2 melanoma = system: SK-MEL-2 melanoma
# SK-MEL-28 melanoma = system: SK-MEL-28 melanoma
# SK-MEL-5 melanoma = system: SK-MEL-5 melanoma
# SK-OV-3 ovarian = system: SK-OV-3 ovarian
# SN12C renal = system: SN12C renal
# SNB-19 CNS = system: SNB-19 CNS
# SR leukemia = system: SR leukemia
# SW-620 colon = system: SW-620 colon
# T-47D breast = system: T-47D breast
# TK-10 renal = system: TK-10 renal
# U251 glioblastoma = system: U251 glioblastoma
# UACC-257 melanoma = system: UACC-257 melanoma
# UACC-62 melanoma = system: UACC-62 melanoma
# UO-31 renal = system: UO-31 renal
structure (smiles),measurement,setting,value
COc1ccccc1-c1nccc(COc2ccccc2C[C@@H](Oc2ncnc3sc(-c4ccc(F)cc4)c(-c4ccc(OCCN5CCN(C)CC5)c(Cl)c4C)c23)C(=O)O)n1,GI50,786-0 renal,1.78 µM
same,TGI,786-0 renal,3.21 µM
same,GI50,A498 renal,2.26 µM
same,TGI,A498 renal,5.43 µM
same,GI50,A549 NSCLC,10.6 µM
same,TGI,A549 NSCLC,22.5 µM
same,GI50,ACHN renal,4.57 µM
same,TGI,ACHN renal,14.8 µM
same,GI50,BT-549 breast,1.27 µM
same,TGI,BT-549 breast,2.55 µM
same,GI50,CAKI-1 renal,2.75 µM
same,TGI,CAKI-1 renal,6.51 µM
same,GI50,CCRF-CEM leukemia,0.0296 µM
same,TGI,CCRF-CEM leukemia,0.801 µM
same,GI50,COLO 205 colon,1.82 µM
same,TGI,COLO 205 colon,3.54 µM
same,GI50,DU-145 prostate,2.13 µM
same,TGI,DU-145 prostate,4.58 µM
same,GI50,HCC-2998 colon,1.19 µM
same,TGI,HCC-2998 colon,2.52 µM
same,GI50,HCT-116 colon,1.94 µM
same,TGI,HCT-116 colon,3.53 µM
same,GI50,HCT-15 colon,5.29 µM
same,TGI,HCT-15 colon,16.2 µM
same,GI50,HL-60(TB) leukemia,< 0.01 µM
same,TGI,HL-60(TB) leukemia,< 0.01 µM
same,GI50,HOP-62 NSCLC,1.71 µM
same,TGI,HOP-62 NSCLC,3.27 µM
same,GI50,HOP-92 NSCLC,1.72 µM
same,TGI,HOP-92 NSCLC,3.1 µM
same,GI50,HT29 colon,1.83 µM
same,TGI,HT29 colon,3.33 µM
same,GI50,IGROV1 ovarian,1.66 µM
same,TGI,IGROV1 ovarian,3.09 µM
same,GI50,K-562 leukemia,1.93 µM
same,TGI,K-562 leukemia,3.48 µM
same,GI50,KM12 colon,1.73 µM
same,TGI,KM12 colon,3.14 µM
same,GI50,LOX IMVI melanoma,1.98 µM
same,TGI,LOX IMVI melanoma,3.42 µM
same,GI50,M14 melanoma,1.54 µM
same,TGI,M14 melanoma,2.89 µM
same,GI50,MALME-3M melanoma,1.08 µM
same,TGI,MALME-3M melanoma,2.29 µM
same,GI50,MCF7 breast,0.0462 µM
same,TGI,MCF7 breast,1.04 µM
same,GI50,MDA-MB-231 breast,1.57 µM
same,TGI,MDA-MB-231 breast,2.96 µM
same,GI50,MDA-MB-435 melanoma,0.391 µM
same,TGI,MDA-MB-435 melanoma,1.6 µM
same,GI50,MDA-MB-468 breast,0.0109 µM
same,TGI,MDA-MB-468 breast,0.054 µM
same,GI50,MOLT-4 leukemia,< 0.01 µM
same,TGI,MOLT-4 leukemia,0.0177 µM
same,GI50,NCI-H226 lung,2.04 µM
same,TGI,NCI-H226 lung,3.64 µM
same,GI50,NCI-H23 lung,0.0453 µM
same,TGI,NCI-H23 lung,0.38 µM
same,GI50,NCI-H322M lung,1.91 µM
same,TGI,NCI-H322M lung,3.72 µM
same,GI50,NCI-H460 NSCLC,1.33 µM
same,TGI,NCI-H460 NSCLC,3.54 µM
same,GI50,NCI-H522 lung,< 0.01 µM
same,TGI,NCI-H522 lung,0.0959 µM
same,GI50,NCI/ADR-RES ovarian,26.8 µM
same,TGI,NCI/ADR-RES ovarian,> 100 µM
same,GI50,OVCAR-3 ovarian,1.85 µM
same,TGI,OVCAR-3 ovarian,3.27 µM
same,GI50,OVCAR-4 ovarian,0.163 µM
same,TGI,OVCAR-4 ovarian,3.11 µM
same,GI50,OVCAR-5 ovarian,2.73 µM
same,TGI,OVCAR-5 ovarian,6.27 µM
same,GI50,OVCAR-8 ovarian,1.77 µM
same,TGI,OVCAR-8 ovarian,3.24 µM
same,GI50,PC-3 prostate,1.82 µM
same,TGI,PC-3 prostate,3.24 µM
same,GI50,RPMI-8226 leukemia,< 0.01 µM
same,TGI,RPMI-8226 leukemia,< 0.01 µM
same,GI50,RXF 393 renal,0.0786 µM
same,TGI,RXF 393 renal,1.04 µM
same,GI50,SF-268 CNS,1.57 µM
same,TGI,SF-268 CNS,2.93 µM
same,GI50,SF-295 CNS,1.4 µM
same,TGI,SF-295 CNS,2.72 µM
same,GI50,SF-539 CNS,1.2 µM
same,TGI,SF-539 CNS,2.47 µM
same,GI50,SK-MEL-2 melanoma,< 0.01 µM
same,TGI,SK-MEL-2 melanoma,< 0.01 µM
same,GI50,SK-MEL-28 melanoma,1.42 µM
same,TGI,SK-MEL-28 melanoma,2.73 µM
same,GI50,SK-MEL-5 melanoma,1.47 µM
same,TGI,SK-MEL-5 melanoma,2.8 µM
same,GI50,SK-OV-3 ovarian,2.95 µM
same,TGI,SK-OV-3 ovarian,9.17 µM
same,GI50,SN12C renal,1.52 µM
same,TGI,SN12C renal,2.9 µM
same,GI50,SNB-19 CNS,1.87 µM
same,TGI,SNB-19 CNS,3.36 µM
same,GI50,SR leukemia,< 0.01 µM
same,TGI,SR leukemia,< 0.01 µM
same,GI50,SW-620 colon,1.88 µM
same,TGI,SW-620 colon,3.36 µM
same,GI50,T-47D breast,1.58 µM
same,TGI,T-47D breast,3.43 µM
same,GI50,TK-10 renal,2.38 µM
same,TGI,TK-10 renal,5.65 µM
same,GI50,U251 glioblastoma,1.81 µM
same,TGI,U251 glioblastoma,3.37 µM
same,GI50,UACC-257 melanoma,1.7 µM
same,TGI,UACC-257 melanoma,3.4 µM
same,GI50,UACC-62 melanoma,0.0206 µM
same,TGI,UACC-62 melanoma,0.057 µM
same,GI50,UO-31 renal,4.23 µM
same,TGI,UO-31 renal,14.2 µM
